According to US6541463B1, “Inhibitors of type 5 and type 3 17β-hydroxysteroid dehydrogenase and methods for their use” (Endorecherche, Inc., priority 1998, dated 2003):

Tests used:
glucocorticoid receptor = target: T1, glucocorticoid receptor (Rattus norvegicus, UniProt P06536); assay: Glucocorticoid receptor assay: inhibition of [3H]-dexamethasone binding, liver cytosol; settings: for inhibition at 1 µM / inhibition at 0.01 µM / % Inhibition Glucocorticold Receptor E^−6 / % Inhibition Glucocorticold Receptor E^−8: Table 4′; for inhibition at 1 µM: read-out: % Inhibition Glucocorticold Receptor E^−6; for inhibition at 0.01 µM: read-out: % Inhibition Glucocorticold Receptor E^−8
T1 construct: from tissue; host or cells: liver cytosol of male Sprague-Dawley rats
T1 sequence (P06536 1-795): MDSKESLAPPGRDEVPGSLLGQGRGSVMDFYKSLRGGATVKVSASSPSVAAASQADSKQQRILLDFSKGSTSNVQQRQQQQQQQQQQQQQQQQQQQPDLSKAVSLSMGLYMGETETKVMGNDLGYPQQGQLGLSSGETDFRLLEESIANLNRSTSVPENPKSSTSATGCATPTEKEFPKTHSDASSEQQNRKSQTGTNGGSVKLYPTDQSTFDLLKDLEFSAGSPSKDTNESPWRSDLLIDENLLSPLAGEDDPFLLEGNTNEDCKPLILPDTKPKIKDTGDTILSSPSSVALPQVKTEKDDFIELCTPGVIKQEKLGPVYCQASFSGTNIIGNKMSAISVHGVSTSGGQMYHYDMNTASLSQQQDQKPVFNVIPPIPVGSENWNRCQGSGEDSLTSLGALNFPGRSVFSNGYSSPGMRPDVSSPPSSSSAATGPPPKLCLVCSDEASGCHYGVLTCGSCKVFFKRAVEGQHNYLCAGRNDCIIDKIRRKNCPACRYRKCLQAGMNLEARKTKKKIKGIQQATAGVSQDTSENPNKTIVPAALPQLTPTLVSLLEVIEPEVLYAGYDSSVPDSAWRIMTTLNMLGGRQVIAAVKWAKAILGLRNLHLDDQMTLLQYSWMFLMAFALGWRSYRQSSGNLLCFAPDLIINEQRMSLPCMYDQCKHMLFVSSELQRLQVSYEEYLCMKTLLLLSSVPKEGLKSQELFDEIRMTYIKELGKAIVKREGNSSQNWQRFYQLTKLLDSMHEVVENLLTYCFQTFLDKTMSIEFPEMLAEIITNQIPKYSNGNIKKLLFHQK
Experimental: The manner in which the percentage of inhibition is determined is described in “Other Tests; F-Glucocorticoid Receptor Assay”.
[6,7-^3H(N)]-Dexamethasone (39 Ci/mmol) was purchased from New England Nuclear (Lachine, Québec, Canada) while unlabeled dexametasone was obtained from Steraloids (Wilton, N.H.). All other chemicals were of analytical grade.
Stock solutions of the unlabeled steroids were kept at 4° C. in ethanol. The desired steroid solutions were then prepared by appropriate dilution in buffer B (10 mM Tris-HCl, 1.5 mM EDTA, 10 mM α-monothioglycerol, pH 7.4) containing 30% ethanol.
Male Sprague-Dawley rats weighing 200-300 g were obtained from Charles-River Inc. (St-Constant, Québec, Canada). The rats were killed by cervical dislocation and the liver were rapidly removed, dissected free from adhering tissue and frozen on dry-ice. Tissues were kept at −80° C. until use.
All procedures were performed at 4° C. Tissues were eminced and homogenized in 10 vol (w/v) of buffer A (25 mM Tris-HCl, 1.5 mM EDTA, 10 mM α-monothioglycerol, 10% glycerol, 10 mM sodium molybdate, pH 7.4) using a Polytron PT-10 homogenizer (Brinkmann Instruments, Canada) at a setting of 5 for two periods of 10 sec, with intervals of 10 sec for cooling. The homogenate was then centrifuged at 105,000×g for 90 min. The supernatant was used immediately for assay.
Glucocorticoid binding was measured using the dextran-coated charcoal adsorption technique. Incubations were performed at 0-4° C. for 16-18 h using 100 μl of cytosol, 100 μl of [^3H]-Dexamethasone (5 nM final) and 100 μl of unlabeled compounds at the indicated concentrations. Each concentration was done in triplicate. Assay was ended with 300 μl of DCC (2.5% Norit A and 0.25% Dextran T-70 in Buffer B). After 10 min of incubation, tubes were centrifuged at 2,000×g for 10 min. and decanted in vials with 6 ml of BCS liquid scintillation (New England Nuclear, Dupont). The radioactivity was measured in a Beckman counter at a counting efficiency of 35%.

[1] = test system: Shionogi mouse mammary carcinoma cells; assay: Antiandrogenic activity: inhibition of DHT-induced proliferation of Shionogi cells; format: cell-based
Outline: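 Androgen-sensitive Shionogi mouse mammary carcinoma cells, 20 000/well, were grown 10–12 days in charcoal-stripped serum with increasing agent concentrations in triplicate, with medium changed every 3–4 days. Cell number was counted directly, and ED50 was derived by least-square regression.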

[2] = Table 4′, DHT-induced proliferation, E^−6 (10^−6 M)
[3] = Table 4′, DHT-induced proliferation, E^−7

SMILES	inhibition at 1 µM (glucocorticoid receptor; E^−6) [%]	inhibition at 0.01 µM (glucocorticoid receptor; E^−8) [%]	Antiandrogenic Activity Shionogi, DHT E^−6 [1, 2] [%]	Antiandrogenic Activity Shionogi, DHT E^−7 [1, 3] [%]	also measured
CC1(C)CCC2(CCC3C4CCc5cc(O)c([N+](=O)[O-])cc5C4CCC32C)OC1=O (stereo not drawn) [EM-1125-CS]	1	0	−43	−30	
CC1CCC2(CCC3C4CCc5cc(O)c([N+](=O)[O-])cc5C4CCC32C)OC1=O [EM-1126, 2-Nitro-1,3,5(10)-estratrien-3-ol-17(R)-spiro-2′-(5′-methyl-6′-oxo)tetrahydropyran]			−49	0	% Inhibition Glucocorticold Receptor E^−6 (glucocorticoid receptor; E^−6): 0%; % Inhibition Glucocorticold Receptor E^−8 (glucocorticoid receptor; E^−8): 0%
CC1CCC2(CCC3C4CCc5cc(O)c([N+](=O)[O-])cc5C4CCC32C)OC1=O [EM-1131, 2-Nitro-1,3,5(10)-estratrien-3-ol-17(R)-spiro-2′-(5′-methyl-6′-oxo)tetrahydropyran]	0	0	−47	−15	
CC1(C)CC[C@@]2(CCC3C4CCc5cc(F)ccc5C4CC[C@@]32C)OC1=O (stereo partly drawn) [EM-1157-CS]	0	1	−19	0	
CC(=O)O[C@]1(C(=O)N(C)C)CCC2C3C=C(C)C4=CC(=O)CC[C@]4(C)C3CC[C@@]21C (stereo partly drawn) [EM-1159]					% Inhibition Glucocorticoid Receptor (glucocorticoid receptor; E^−6): 59%; % Inhibition Glucocorticoid Receptor (glucocorticoid receptor; E^−8): 8%; Antiandrogenic Activity Shionogi, DHT ([1]; E^−6): −71; Antiandrogenic Activity Shionogi, DHT ([1]; E^−7): 1
CCCCN(C)C(=O)[C@@]1(OC(C)=O)CCC2C3C=C(C)C4=CC(=O)CC[C@]4(C)C3CC[C@@]21C (stereo partly drawn) [EM-1165]					% Inhibition Glucocorticoid Receptor (glucocorticoid receptor; E^−6): 26%; % Inhibition Glucocorticoid Receptor (glucocorticoid receptor; E^−8): 0%; Antiandrogenic Activity Shionogi, DHT ([1]; E^−6): −102; Antiandrogenic Activity Shionogi, DHT ([1]; E^−7): −14; IC50 ([1]; Mus musculus, read-out: Antiandrogenic Activity Shionogi, DHT [IC50]): 232 nM
CC12CCC3c4ccc(F)cc4CCC3C1CCC21CCCC(=O)O1 (stereo not drawn) [EM-1170-CS]	3	4	−38	15	
CCC[C@]1(F)CC2C3C=CC4=CC(=O)CC[C@]4(C)C3CC[C@]2(C)C1=O (stereo partly drawn) [EM-1183]					% Inhibition Glucocorticoid Receptor E^−6 (glucocorticoid receptor; E^−6): 12%; % Inhibition Glucocorticoid Receptor E^−8 (glucocorticoid receptor; E^−8): 0%; Antiandrogenic Activity Shionogi, DHT E^−6 ([1]; with DHT, E^−6): −51; Antiandrogenic Activity Shionogi, DHT E^−7 ([1]; with DHT, E^−7): 0
CC(=O)[C@@]1(OC(=O)CCCCF)CCC2C3C=C(C)C4=CC(=O)CC[C@]4(C)C3CC[C@@]21C (stereo partly drawn) [EM-1195-CS]					% Inhibition Glucocorticoid Receptor (glucocorticoid receptor; E^−6): 90%; % Inhibition Glucocorticoid Receptor (glucocorticoid receptor; E^−8): 3%; Antiandrogenic Activity Shionogi, DHT ([1]; E^−6): −110; Antiandrogenic Activity Shionogi, DHT ([1]; E^−7): −105
CC(C)C[C@@H]1CC2C3C=CC4=CC(=O)CC[C@]4(C)C3CC[C@]2(C)C1=O (stereo partly drawn) [EM-1273-CS]					% Inhibition Glucocorticoid Receptor E^−6 (glucocorticoid receptor; E^−6): 1%; % Inhibition Glucocorticoid Receptor E^−8 (glucocorticoid receptor; E^−8): 0%; Antiandrogenic Activity Shionogi, DHT E^−6 ([1]; with DHT, E^−6): −43; Antiandrogenic Activity Shionogi, DHT E^−7 ([1]; with DHT, E^−7): 9
COc1ccc(CC(=O)O[C@]2(C(C)=O)CCC3C4C=C(C)C5=CC(=O)C=C[C@]5(C)C4CC[C@@]32C)cc1 (stereo partly drawn) [EM-1291]					% Inhibition Glucocorticoid Receptor (glucocorticoid receptor; E^−6): 69%; % Inhibition Glucocorticoid Receptor (glucocorticoid receptor; E^−8): 1%; Antiandrogenic Activity Shionogi, DHT ([1]; E^−6): −48; Antiandrogenic Activity Shionogi, DHT ([1]; E^−7): −13
C[C@]12CCC(=O)C=C1C=C[C@@H]1[C@@H]2CC[C@]2(C)C(=O)C3(CC4CC4C3)C[C@@H]12 (stereo partly drawn) [EM-1299, 4,6-Androstadien-3,17-dione-16-spirobicyclo[3′.1′.0′]-hexane]					% Inhibition Glucocorticoid Receptor E^−6 (glucocorticoid receptor; E^−6): 0%; % Inhibition Glucocorticoid Receptor E^−8 (glucocorticoid receptor; E^−8): 0%; Antiandrogenic Activity Shionogi, DHT E^−6 ([1]; with DHT, E^−6): −27; Antiandrogenic Activity Shionogi, DHT E^−7 ([1]; with DHT, E^−7): 0
CCS(=O)(=O)Oc1ccc2c(c1)CCC1C2CCC2(C)C1CCC21CCC(C)(C)C(=O)O1 (stereo not drawn) [EM-1364-CS]	3	0	−59	−11	
CC1(C)CCC2(CCC3C4CCc5cc(OS(C)(=O)=O)ccc5C4CCC32C)OC1=O (stereo not drawn) [EM-1365-CS]	5	0	−53	−17	
COCCOc1ccc2c(c1)CCC1C2CCC2(C)C1CCC21CCC(C)(C)C(=O)O1 [EM-1368-CS, 3-Methoxyethoxy-1,3,5(10)-estratrien-17(R)-spiro-2′-(5′,5′-dimethyl-6′-oxo)-tetrahydropyran]	3	3	−44	0	
CCOc1ccc2c(c1)CCC1C2CC[C@@]2(C)C1CC[C@@]21CCC(C)(C)C(=O)O1 (stereo partly drawn) [EM-1369, 3-Ethoxy-1,3,5(10)-estratrien-17(R)-spiro-2′-(5′,5′-dimethyl-6′-oxo)-tetrahydropyran]	2	1	−24	0	
COc1ccc2c(c1)CCC1C2CCC2(C)C1CCC21CCC(C)(C)C(=O)O1 (stereo not drawn) [EM-1370]	0	3	−28	0	
COCCOc1cc2c(cc1Cl)C1CCC3(C)C(CCC34CCC(C)(C)C(=O)O4)C1CC2 (stereo not drawn) [EM-1371-CS]	0	1	−76	0	
CC1(C)CC[C@@]2(CC[C@H]3[C@@H]4CCc5c(cc(Br)c(O)c5Br)[C@H]4CC[C@@]32C)OC1=O [EM-1382-CS]			0	0	% Inhibition Glucocorticold Receptor E^−6 (glucocorticoid receptor; E^−6): 4%; % Inhibition Glucocorticold Receptor E^−8 (glucocorticoid receptor; E^−8): 2%
COc1c(Br)cc2c(c1Br)CCC1C2CCC2(C)C1CCC21CCC(C)(C)C(=O)O1 (stereo not drawn) [EM-1385-CS]	5	0	−61	0	
